Like-named read-outs stand apart in the source and are kept apart here.
Molecular target: T1, unphosphorylated ABL1(T315I)(229-499) (Homo sapiens, UniProt P00519, T315I)
T1 construct: The recombinant ABL1(T315I) (isoform 1a) residues 229-499 protein was designed with an N-terminal 10×His tag; made in house; host or cells: E. coli (co-expressed with YopH phosphatase and pGro7 chaperone)
T1 sequence (P00519 229-499 T315I): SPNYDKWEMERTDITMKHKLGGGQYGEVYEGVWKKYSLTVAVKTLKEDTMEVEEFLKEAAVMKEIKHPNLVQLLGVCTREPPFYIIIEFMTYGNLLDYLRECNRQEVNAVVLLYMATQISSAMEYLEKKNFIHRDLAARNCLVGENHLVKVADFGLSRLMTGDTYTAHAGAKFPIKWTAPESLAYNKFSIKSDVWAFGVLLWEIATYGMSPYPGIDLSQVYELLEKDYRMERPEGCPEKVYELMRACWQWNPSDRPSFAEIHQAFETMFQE
Experiment: SPR binding to unphosphorylated ABL1(T315I)(229-499)
Conditions: Ni-NTA capture of 10xHis-tag

Compound: Nc1nc(N)c(N=O)c(OCC2CCCCC2)n1 [A-0001, 6-Cyclohexylmethyloxy-5-nitroso-pyrimidine-2,4-diamine]
- Kd (HBST buffer, read-out: Unphosphorylated ABL1(T315I)(229-499) in HBST buffer KD): 2 µM
- Kd (PBST buffer, read-out: Unphosphorylated ABL1(T315I)(229-499) in PBST buffer KD): 5 µM

Reference: patent US20240165113A1, “METHODS OF TREATMENT FOR LEUKEMIA” (DNA SEQ 2, Inc., priority 2021, published 2024)
